Values quoted from earlier work, collected in patent US5891889A, “Inhibitors of farnesyl-protein transferase” (Merck & Co., Inc., priority 1997, dated 1999).

Tested on: farnesyl-protein transferase
Conditions: via inhibition of HMG-CoA reductase; literature

| Structure (SMILES) | Indirect inhibition of farnesyl-protein transferase in vivo |
| --- | --- |
| CC[C@H](C)C(=O)O[C@H]1CCC=C2C=C[C@H](C)[C@H](CC[C@@H]3C[C@@H](O)CC(=O)O3)[C@H]21 [compactin] | Indirect inhibition of farnesyl-protein transferase in vivo has been demonstrated |
| CC[C@H](C)C(=O)O[C@H]1C[C@@H](C)C=C2C=C[C@H](C)[C@H](CC[C@@H]3C[C@@H](O)CC(=O)O3)[C@H]21 [lovastatin] | Indirect inhibition of farnesyl-protein transferase in vivo has been demonstrated |
